The results in this text go back to PMC10361207, “Cannabinoid and Opioid Receptor Affinity and Modulation of Cancer-Related Signaling Pathways of Machaeriols and Machaeridiols from Machaerium Pers” (Molecules, 2023).

Converted amounts (≈) assume the structure as drawn.

Data set [1] in a line: Cytotoxicity, Neutral Red, SK-MEL. The format is cell-based. The note with it: human, SK-MEL malignant melanoma cells, Na = not active up to 50 µg/mL. As to the method:
(§1) In vitro cytotoxic activity was determined against five human cancer cell lines—malignant melanoma (SK-MEL), epidermal carcinoma oral (KB), ductal carcinoma breast (BT-549), ovary carcinoma (SKOV-3) and cervical (HeLa) cancer cells—and two non-cancerous kidney cell lines (LLC-PK1 and Vero). All cell lines were obtained from the American Type Culture Collection (ATCC, Rockville, MD, USA). Each assay was performed in 96-well tissue culture-treated microplates. The cells were seeded at a density of 25,000 cells/well and incubated for 24 h. Samples at different concentrations were added, and the cells were incubated again for 48 h. At the end of the incubation, the cell viability was determined using Neutral Red dye according to a modification of the procedure used by Borenfreund et al.. IC50 values were determined from dose–response curves of the percent growth inhibition against test concentrations. Doxorubicin was used as a positive control, while DMSO was used as the negative (vehicle) control.

A further data set addresses T1, κ opioid receptor (Homo sapiens, UniProt P41145).
T1 construct: host or cells: HEK293, stably transfected; membranes
The format is binding. Conditions: 10 μM; [3H]-U-69,593. Here is the method:
(§2) HEK293 cells stably transfected with δ, κ and μ opioid subtypes were a generous gift from Roth Laboratories (University of North Carolina at Chapel Hill, N.C., USA). CB and opioid cells were maintained as previously described.
Membranes were purified by first washing the cells with cold PBS and scraping the cells into cold 50 mM Tris-HCl, pH 7.4 buffer, which was centrifuged at 5200× g for 10 min at 4 °C; next, the supernatant was discarded, and the pellet was washed with more Tris-HCl buffer, homogenized via a Sonic Dismembrator (Fisher Scientific, Pittsburgh, PA, USA) and then centrifuged at 24,000× g for 40 min at 4 °C. […] The total membrane protein concentration was measured using a Pierce BCA Protein Assay Kit (Thermo Scientific, Rockford, IL, USA) as per the manufacturer’s protocol.
Cannabinoid and opioid competitive radioligand binding assays were performed as previously described. […] Percent displacements were evaluated for all the cannabinoid and opioid subtypes with a triplicate of a fixed concentration (10 µg/mL for extracts and fractions and 10 μM for purified compounds). […] The percent displacement was calculated to represent the ability of the samples to displace the radioligand binding for a given cannabinoid or opioid receptor subtype.
The percent displacement was calculated as follows: 100−binding of compound−nonspecific binding/specific binding×100 […]

The subject of data set [2] is Notch. The data set can be described thus: Luciferase reporter assay, Notch, HeLa. The format is cell-based. The note with it: Homo sapiens; for IC50: HeLa cells, inducer PMA, dash: not inhibited by more than 40% at 50 µmol/L. Here is the method: (§3) Hela cells (or T98G cells) from ATCC were plated in white opaque 384-well plates at a density of 4300 cells/well in 30 µL of growth medium (DMEM with 10% FBS and 1% Pen/Strep). The next day, the medium was aspirated and replaced with DMEM containing 1% FBS. The cells were transfected with respective plasmids using X-tremeGENE HP DNA transfection reagent (Roche). After 24 h of transfection, the test agents were added to the transfected cells, followed 30 min later by an inducing agent: interleukin 6 (IL-6) for Stat3, TGF-β for Smad, m-wnt3a for Wnt and PMA for AP-1, NF-κB, E2F, Myc, ETS, Notch and Hedgehog. No inducer was added for FoXO and pTK. After 4 h or 6 h of induction, the cells were lysed via the addition of the One-Glo luciferase assay system (Promega; Madison, WI). The light output was detected in a GloMax®-Multi+ Detection System with Instinct® Software (Promega E 8051). This luciferase assay determines if the test agent is able to inhibit the activation of cancer-related signaling pathways. In the case of FoxO, the enhanced luciferase activity via the test agent was assessed.
Background: A reporter such as luciferase makes a cellular process visible.

In a further data set the test system is E2F. The data set can be described thus: Luciferase reporter assay, E2F, HeLa. It is filed as cell-based, human. The note with it: Homo sapiens, HeLa; for IC50: read-out: IC50, E2F (PMA). As to the method:
as §3

A further data set relates to AP-1. Kind of data set: Luciferase reporter assay, AP-1, HeLa. The format is cell-based, human. Conditions: Homo sapiens; for IC50: read-out: IC50, Ap-1 (PMA). As to the method: as §3
Data set [3] can be described thus: Cytotoxicity, Neutral Red, SK-OV-3. It is filed as cell-based. The note with it: human, SK-OV-3 ovary carcinoma cells, Na = not active up to 50 µg/mL. As to the method: as §1
Data set [4] can be described thus: Cytotoxicity, Neutral Red, BT-549. It is filed as cell-based. The note with it: human, BT-549 breast ductal carcinoma cells, Na = not active up to 50 µg/mL. Here is the method: as §1
A further data set deals with T2, CB1 receptor (Homo sapiens, UniProt P21554).
T2 construct: expressed in transfected cells; host or cells: HEK293 (ATCC), stably transfected; membranes
T2 sequence (P21554 whole entry): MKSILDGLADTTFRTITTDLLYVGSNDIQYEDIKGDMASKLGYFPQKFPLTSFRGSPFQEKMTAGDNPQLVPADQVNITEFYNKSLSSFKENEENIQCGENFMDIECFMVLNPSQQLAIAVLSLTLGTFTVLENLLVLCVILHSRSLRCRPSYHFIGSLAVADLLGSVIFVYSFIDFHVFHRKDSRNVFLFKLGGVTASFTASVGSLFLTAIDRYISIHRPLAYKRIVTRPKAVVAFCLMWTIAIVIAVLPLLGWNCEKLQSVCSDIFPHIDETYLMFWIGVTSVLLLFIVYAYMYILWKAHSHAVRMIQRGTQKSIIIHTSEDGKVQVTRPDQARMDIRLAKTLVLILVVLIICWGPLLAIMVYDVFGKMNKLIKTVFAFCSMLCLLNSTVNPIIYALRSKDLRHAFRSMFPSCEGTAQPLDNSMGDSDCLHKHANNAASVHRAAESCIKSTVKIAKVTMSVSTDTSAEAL
Kind of data set: Competitive radioligand binding assay, CB1. Conditions: 10 μM; [3H]-CP55,940. As to the method: as §2
Membranes were purified by first washing the cells with cold PBS and scraping the cells into cold 50 mM Tris-HCl, pH 7.4 buffer, which was centrifuged at 5200× g for 10 min at 4 °C; next, the supernatant was discarded, and the pellet was washed with more Tris-HCl buffer, homogenized via a Sonic Dismembrator (Fisher Scientific, Pittsburgh, PA, USA) and then centrifuged at 24,000× g for 40 min at 4 °C. Finally, the pellet was re-suspended in cold 50 mM Tris-HCl buffer, aliquoted into 2 mL vials and stored at −80 °C. The total membrane protein concentration was measured using a Pierce BCA Protein Assay Kit (Thermo Scientific, Rockford, IL, USA) as per the manufacturer’s protocol.
Cannabinoid and opioid competitive radioligand binding assays were performed as previously described. Saturation experiments were performed for all the receptors to determine the receptor concentration and radioligand dissociation constant (Kd) for the membrane. Percent displacements were evaluated for all the cannabinoid and opioid subtypes with a triplicate of a fixed concentration (10 µg/mL for extracts and fractions and 10 μM for purified compounds). […] Control/test compounds were dissolved in DMSO at 10 μg/mL for extracts and fractions and 10 μM for purified compounds. […] The percent displacement was calculated to represent the ability of the samples to displace the radioligand binding for a given cannabinoid or opioid receptor subtype.
The percent displacement was calculated as follows: 100−binding of compound−nonspecific binding/specific binding×100
The competitive binding assays were performed using 12 serial dilutions of each compound ranging from 0.002 to 300 μM (control compounds were serially diluted from 10 μM to 0.06 nM). The cannabinoid assays were incubated for 90 min at 37 °C with gentle agitation. The opioid assays were incubated for 60 min at room temperature. Bound radioligands were collected on GF/C (cannabinoid) or GF/B plates (opioid) and washed 10 times with ice-cold 50 mM Tris-HCl (pH 7.4)/0.1% BSA (cannabinoid) or ice-cold 50 mM Tris-HCl (pH 7.4) (opioid). Radiodetection was measured with 50 µL (cannabinoid) or 25 µL (opioid) of MicroScint^TM-20 on a TopCount NXT HTS Microplate Scintillation Counter (PerkinElmer, Waltham, MA, USA). The IC50 and Ki values were calculated via a non-linear curve fit model using GraphPad Prism 5.0 software (GraphPad Software, Inc., San Diego, CA, USA). Each compound was tested in triplicate unless stated otherwise.

Data set [5] is described as follows: Cytotoxicity, Neutral Red, KB. The format is cell-based. The note with it: human, KB epidermal carcinoma (oral) cells, Na = not active up to 50 µg/mL. As to the method:
as §1

Data set [6] concerns Notch. Kind of data set: Luciferase reporter assay, Notch, T98G. The format is cell-based. Conditions: Homo sapiens; T98G cells; inducer PMA. Here is the method: as §3
A further data set has as its system Smad2/3. Kind of data set: Luciferase reporter assay, Smad2/3, T98G. The format is cell-based. Conditions: Homo sapiens; T98G cells; inducer TGF-beta. Here is the method: as §3
Another data set concerns Wnt. The data set can be described thus: Luciferase reporter assay, Wnt, T98G. The format is cell-based. Conditions: T98G cells, inducer m-wnt3a, dash: not inhibited by more than 40% at 50 µmol/L. As to the method:
as §3

Where [7] appears, read: read-out: Additive effect (in % inhibition): percentage of luciferase induction, E2f (PMA).
[8] abbreviates: AP1, read-out: Additive effect (in % inhibition): percentage of luciferase induction, AP-1 (PMA).

T1 sequence (P41145 whole entry): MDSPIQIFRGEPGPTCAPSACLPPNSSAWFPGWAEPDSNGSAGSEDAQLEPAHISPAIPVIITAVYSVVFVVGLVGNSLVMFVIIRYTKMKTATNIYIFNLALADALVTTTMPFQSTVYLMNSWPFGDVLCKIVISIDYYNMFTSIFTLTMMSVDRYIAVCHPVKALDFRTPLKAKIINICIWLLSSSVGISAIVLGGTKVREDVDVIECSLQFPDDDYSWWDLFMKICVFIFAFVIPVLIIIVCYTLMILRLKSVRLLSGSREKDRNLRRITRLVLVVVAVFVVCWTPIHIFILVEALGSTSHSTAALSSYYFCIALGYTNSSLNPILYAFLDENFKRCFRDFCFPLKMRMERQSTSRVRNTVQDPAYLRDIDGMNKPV

As a reminder, the IC50 is the point on the concentration scale where inhibition reaches its midpoint. Broadly, the inhibition is the drop in the measured response relative to a control, in per cent. As for `C[C@H]1CC[C@H]2[C@H](C1)c1c(O)cc(/C=C/c3ccccc3O)cc1OC2(C)C` [compound 3, machaeriol C], the IC50 at 48 h in [1] is 25 µg/mL (≈ 68.6 µM); in [3] it was > 50 µg/mL; in data set [4], > 50 µg/mL; in data set [5], > 50 µg/mL. The “Percent displacement, ĸ” value at κ opioid receptor was found to be 6.4%. Moreover, the inhibition at 10 µM is 115% in the data set with Notch [2] (HeLa, 3 alone at 10 µM, compared to pTK as control, read-out: Additive effect (in % inhibition): percentage of luciferase induction, Notch- (PMA)); 50% in the data set on E2F (setting [7]); 61% with AP-1 (setting [8]). Further, the IC50 in the data set with Notch [2] was > 50 µM; in the data set with E2F it was 14 µM; in the data set on AP-1, 12 µM. For the same molecule, the “Percent displacement, CB1” value on CB1 receptor is 43.6%.
Turning to `C=C(C)[C@H]1CC[C@H](C)C[C@@H]1c1c(O)cc(/C=C/c2ccccc2O)cc1O` [compound 6, machaeridiol B], the IC50 at 48 h in [1] is 32 µg/mL (≈ 87.8 µM); in data set [3] it was > 50 µg/mL; in [4] it was 36 µg/mL (≈ 98.8 µM); in [5], 38 µg/mL (≈ 104 µM). For the same molecule, the inhibition at 2 µM in the data set on Notch [2] (HeLa, 6 alone at 2 µM, compared to pTK as control, read-out: Additive effect (in % inhibition): percentage of luciferase induction, Notch- (PMA)) amounted to 103%; with E2F (setting [7]) it was 80%; in the data set with AP-1 (setting [8]), 70%. Also, the IC50 is 5.3 µM in the data set with Notch [2]; 4.6 µM with Notch [6]; 5.7 µM in the data set with E2F; 5.9 µM in the data set on AP-1; 3 µM in the data set with Smad2/3; > 50 µM in the data set on Wnt (Homo sapiens). Besides, the “Percent displacement, CB1” value at CB1 receptor is 45.2%. Also, the “IC50, Wnt (m-wnt3a)” value in the data set with Wnt was “inactive”.
